The values that follow come from patent US9447047B2 (priority 2012, dated 2016).

In data set [1] the test system is Vero-E6 cells.
Data set [2] concerns EBOV-eGFP. The format is cell-based.
The subject of data set [3] is CEM cells. Kind of data set: cells. As to conditions: Homo sapiens, CCRF-CEM; for IC50: read-out: Toxicity in CEM cells, (IC50, μM); for pIC50: read-out: Toxicity in CEM cells, IC50.
Data set [4] relates to Tat-induced HIV transcription in 293T cells. Kind of data set: Tat-induced HIV transcription in 293T cells transfected with HIV-1 LTR reporter and Tat vectors. The format is cell-based.
Data set [5] relates to HIV-1. Kind of data set: Inhibition of HIV-1 replication. The format is cell-based.
In data set [6] the target is PP1 association with NIPP1, PNUTS and Tat (Homo sapiens, UniProt P62136). In kind it is cell-based.
For data set [7], the target named is PP1α (Homo sapiens, UniProt P62136). Kind of data set: Dephosphorylation of generic KT(pT)IRR peptide by recombinant PP1α (malachite green). In kind it is biochemical.
Data set [8] relates to HIV-1 transcription in CEM-GFP cells. Kind of data set: Tat-dependent HIV-1 transcription LTR-GFP reporter assay in CEM-GFP cells infected with Ad-Tat. As to conditions: for IC50: Human immunodeficiency virus 1, CEM-GFP, 48 h, read-out: Inhibition of HIV-1 Transcription in CEM-GFP cells (IC50, μM). In kind it is cell-based. On the technique in general: In a reporter assay the amount or activity of a reporter protein is the signal.

The test system of data set [9] is interaction of Tat with PP1α. In kind it is cell-based. As to conditions: 10 μM, 293T cells.
For data set [10], the system named is Tat-driven nuclear localization of PP1α. The format is cell-based.
Data set [11] deals with CEM cells.
Data set [12] relates to 293T cells. Kind of data set: Global cellular proteome of 293T cells by LC-MS-MS. To be noted: 10 μM for 18 h.
For data set [13], the system named is EBOV VP30. The format is cell-based.
Data set [14] is described as follows: Control cell viability assays (FIG. 18).
Data set [15] relates to EBOV transcription. In kind it is cell-based.
The mark [16] stands for this setting: Human immunodeficiency virus 1; read-out: 50% Inhibition of HIV-1 replication.

Each structure is given as a SMILES string. pIC50: −log10 of the molar value. Entries after “also recorded” stand apart in the source; their conditions may differ. Where two headings read alike, the source gives them in different places. Where only a bound is given, the exact number is not on record here.

PP1α, sequence (P62136 whole entry): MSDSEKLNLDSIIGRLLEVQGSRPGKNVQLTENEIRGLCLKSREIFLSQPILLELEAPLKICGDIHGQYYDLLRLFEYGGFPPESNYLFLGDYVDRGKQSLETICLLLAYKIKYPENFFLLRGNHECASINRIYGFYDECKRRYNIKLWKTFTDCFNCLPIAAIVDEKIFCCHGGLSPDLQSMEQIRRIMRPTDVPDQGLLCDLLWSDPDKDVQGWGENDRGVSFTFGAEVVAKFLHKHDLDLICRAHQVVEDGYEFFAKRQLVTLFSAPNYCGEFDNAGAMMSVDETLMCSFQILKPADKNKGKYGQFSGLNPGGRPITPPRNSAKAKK
PP1 association with NIPP1, PNUTS and Tat, sequence (P62136 2-330 limits assumed): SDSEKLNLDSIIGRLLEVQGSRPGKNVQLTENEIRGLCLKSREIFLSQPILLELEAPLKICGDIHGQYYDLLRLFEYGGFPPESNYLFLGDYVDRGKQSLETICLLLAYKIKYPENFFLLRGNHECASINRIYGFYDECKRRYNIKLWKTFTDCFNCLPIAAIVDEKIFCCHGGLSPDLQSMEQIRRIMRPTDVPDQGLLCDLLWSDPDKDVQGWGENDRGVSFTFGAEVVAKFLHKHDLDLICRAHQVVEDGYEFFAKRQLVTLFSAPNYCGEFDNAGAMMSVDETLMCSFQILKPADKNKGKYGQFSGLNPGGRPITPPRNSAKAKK

Turning to `CC(OC(=O)c1c2c(nc3ccccc13)/C(=C/c1cccs1)CCC2)C(=O)NC1CC1` (stereo not drawn) [1E7-05], in data set [1], the “toxicity” value is on record as “some toxicity” and the “toxicity (cell monolayer, words)” value is given as “visible toxicity”. Moreover, the “inhibition of EBOV replication” value in [2] is reported as “highly potent”.
Usually IC50 stands for the concentration needed to halve the response being measured. On to `COCCNC(=O)OC(=O)c1c2c(nc3ccccc13)/C(=C\c1ccc(O)cc1)CCC2` [1H4], for which the results for the concentration for half-maximal inhibition (IC50) in data set [3] and in data set [8] were more than 25 µM and 12.5 µM, respectively. For the same compound, the pIC50 was 4.52 in [3]; 5.30 in [4] (Human immunodeficiency virus 1, HEK-293T, read-out: Inhibition Tat-induced HIV transcription in 293T cells, IC50); 5.00 in [5] (Human immunodeficiency virus 1, read-out: 50% Inhibition of HIV-1 replication); 5.00 in [8] (Human immunodeficiency virus 1, read-out: Inhibition Tat-induced HIV transcription in CEM cells, IC50). Further, in data set [6], the “Tat association with PP1 (microcystin precipitation)” value is “reduced”. Further, in data set [6], the “interaction of PP1 with PNUTS or NIPP1” value is on record as “without any effect; also recorded: no effect”. Further, the “effect on PP1 enzymatic activity (Vmax and Km, KT(pT)IRR peptide)” value in data set [7] is given as “minimal effect; also recorded: no effect”. Moreover, in data set [7] (1H4 300 μM, without compound V0=1.4), the “initial velocity V0 of KT(pT)IRR peptide dephosphorylation by PP1α” value is 1.3 μM·min^−1. The “PP1α-EGFP co-precipitated with Tat” value in data set [9] is on record as “reduced; also recorded: prevents the interaction”. Besides, the “association of Tat with CDK9/cyclin T1” value in data set [9] is on record as “no effect”. For the same compound, in data set [10] (293T cells, nuclear fraction, vs untreated or 1G3), the “nuclear PP1α-EGFP fluorescence” value is “significant decrease”. For the same compound, in [10] (HeLa cells, 10 μM, 18 hours), the “nuclear localization of PP1α in the presence of Tat” value is reported as “drastically diminished; also recorded: disrupts”. Further, the “cytotoxicity / toxicity in T cells” value in data set [11] was “not cytotoxic”. In addition, the “effect on cellular proteome” value in data set [12] was “did not significantly change”.
In the case of `C=C1[C@@H](O)[C@@H]2O[C@]3(CC[C@H](/C=C/[C@@H](C)[C@@H]4CC(C)=C[C@@]5(O[C@H](C[C@@](C)(O)C(=O)O)CC[C@H]5O)O4)O3)CC[C@H]2O[C@@H]1[C@@H](O)C[C@H](C)[C@H]1O[C@@]2(CCCCO2)CC[C@H]1C` [okadaic acid, reference compound], the “VP30 phosphorylation” value in data set [13] is “increased”.
As for `CCNC(=O)NC(=O)C(C)OC(=O)c1c2c(nc3ccccc13)/C(=C\c1cccs1)CCC2` (stereo not drawn) [1E7-04], the pIC50 in [3] is 5.15; in [5] (setting [16]), 5.52. In [1], the “toxicity” value is “some toxicity”. For the same compound, in [1], the “toxicity (cell monolayer, words)” value was “visible toxicity”. Further, in data set [2], the “inhibition of EBOV replication” value is given as “highly potent”.
For the compound `O=C(CNC(=O)c1ccccc1SCC(=O)NC12CC3CC(CC(C3)C1)C2)Nc1ccc(Cl)cc1` [T5498680], the IC50 in data set [3] and in [8] was 5 µM each time.
For the compound `CN(C1CCCCC1)S(=O)(=O)c1ccc(NC(=O)COc2ccccc2-c2ccccc2)cc1` [T5551920], the IC50 in data set [3] and in data set [8] was 15 µM throughout.
Take `CC(OC(=O)c1ccccc1SCC(=O)Nc1ccc2c(c1)OCO2)C(=O)NCCC1=CCCCC1` (stereo not drawn) [T5369370]: the IC50 in data set [3] was determined as 15 µM; in [8], 10 µM.
The like results for `O=S(=O)(Nc1ccc(S(=O)(=O)N2CCC(Cc3ccccc3)CC2)cn1)c1ccccc1` [T5481237] were, in that order, 20 µM and 15 µM.
As to `CCNC(=O)NC(=O)C(C)OC(=O)c1c2c(nc3ccccc13)/C(=C/c1ccc(OC)c(OC)c1)CC2` (stereo not drawn) [1E7-03], the “VP30 phosphorylation” value in [13] is on record as “increased”. The “increase of VP30 phosphorylation” value in data set [13] was determined as 2.7 fold. In addition, the figures for the pIC50 in [3] and in data set [5] (setting [16]) were less than 4.70 and 5.52, respectively. The “potency in HIV-1 transcription inhibition in 293T cells (comparison)” value in data set [4] was “equally potent as 1E7”. Further, the “HIV-1 inhibition” value in data set [5] (FIG. 18) is listed as “potent HIV-1 inhibitor”. Also, the “toxicity” value in [1] was “without any detectable cytotoxicity”. Further, in [14], the “cell viability” value is given as “maintains the most viability”. Further, the “EBOV transcription” value in data set [15] is reported as “inhibits EBOV transcription”. Moreover, the “translocation of Tat and PP1 into the nucleus” value in data set [10] (fluorescence in nucleus and cytoplasm fractions) is recorded as “inhibited”. Further, the “inhibition of EBOV replication” value in data set [2] was “completely suppressed”.
For `CCC(c1nnc(SCC(=O)Nc2ncc(-c3ccc(F)cc3)s2)n1Cc1ccccc1)N(C)C` (stereo not drawn) [T5251659], the figures for the IC50 in data set [3] and in data set [8] were 6 µM and 10 µM, respectively.
In the same order, the values of `CCN(CC)S(=O)(=O)c1ccc2c(c1)nc(CCC(=O)N(C)c1ccc(C(F)(F)F)cc1)n2C` [T5326526] are 10 µM and 15 µM.
